# Results reported in ChEMBL document CHEMBL3885861, “Open TG-GATES”.
# Species: Rattus norvegicus
# Experiment: Open TG-GATES - Regimen: Single
# Assay type: toxicity, organism-based, Sprague-Dawley
# Design: regimen Single, gender Male, age 6 weeks
# Conditions: in vivo, po, route gavage; for gamma-GTP / ALP / ALT / AST / BUN / CRE / DBIL / GLC / IP / K / Na / PL / RALB / TBIL / TC / TG / TP / LDH / Ca: tissue Plasma; for APTT / Bas / Eos / Fbg / Hb / Ht / Lym / MCH / MCHC / MCV / Mono / Neu / PT / Plat / RBC / Ret / WBC: tissue Blood; for KIDNEY_L / KIDNEY_R / KIDNEY_TOTAL: tissue Kidney; for LIVER: tissue Liver
# [1] = 300 mg/kg, 3 h, dose level Middle
# [2] = 300 mg/kg, 6 h, dose level Middle
# [3] = 300 mg/kg, 9 h, dose level Middle
# [4] = 300 mg/kg, 24 h, dose level Middle
# [5] = 1000 mg/kg, 3 h, dose level High
# [6] = 1000 mg/kg, 6 h, dose level High
# [7] = 1000 mg/kg, 9 h, dose level High
# [8] = 1000 mg/kg, 24 h, dose level High
structure (smiles),measurement,setting,value
C[C@H](CS)C(=O)N1CCC[C@H]1C(=O)O [CAPTOPRIL],gamma-GTP,"100 mg/kg, 24 h, dose level Low",1 IU/L
same,TERMINAL_BW,[1],224.2 g
same,APTT,[1],16.3 s
same,Bas,[1],0%
same,Eos,[1],0.8%
same,Fbg,[1],204.8 mg/dL
same,Hb,[1],13.2 g/dL
same,Ht,[1],39.8%
same,Lym,[1],83.6%
same,MCH,[1],21.3 pg
same,MCHC,[1],33.2%
same,MCV,[1],64.1 fL
same,Mono,[1],5%
same,Neu,[1],10%
same,PT,[1],11.6 s
same,Plat,[1],117.4 x10_4/uL
same,RBC,[1],620.8 x10_4/ul
same,Ret,[1],6.6%
same,WBC,[1],125.4 x10_2/uL
same,KIDNEY_L,[1],1 g
same,KIDNEY_R,[1],1 g
same,KIDNEY_TOTAL,[1],2 g
same,LIVER,[1],11.2 g
same,ALP,[1],845.8 IU/L
same,ALT,[1],33.4 IU/L
same,AST,[1],61.8 IU/L
same,BUN,[1],17 mg/dL
same,CRE,[1],0.4 mg/dL
same,DBIL,[1],0.006 mg/dL
same,GLC,[1],209.4 mg/dL
same,IP,[1],9.3 mg/dL
same,K,[1],5 meq/L
same,Na,[1],138 meq/L
same,PL,[1],130 mg/dL
same,RALB,[1],3.7 g/dL
same,TBIL,[1],0.4 mg/dL
same,TC,[1],70.8 mg/dL
same,TG,[1],68.6 mg/dL
same,TP,[1],5.4 g/dL
same,gamma-GTP,[1],1.4 IU/L
same,TERMINAL_BW,[2],221.9 g
same,APTT,[2],16.4 s
same,Bas,[2],0%
same,Eos,[2],1.2%
same,Hb,[2],12.9 g/dL
same,Ht,[2],39%
same,Lym,[2],80%
same,MCH,[2],21 pg
same,MCHC,[2],33%
same,MCV,[2],63.5 fL
same,Mono,[2],6.6%
same,Neu,[2],12.2%
same,PT,[2],12.1 s
same,Plat,[2],116.7 x10_4/uL
same,RBC,[2],615 x10_4/ul
same,Ret,[2],8.2%
same,WBC,[2],113.8 x10_2/uL
same,KIDNEY_L,[2],1 g
same,KIDNEY_R,[2],1 g
same,KIDNEY_TOTAL,[2],2 g
same,ALP,[2],734.8 IU/L
same,ALT,[2],32 IU/L
same,AST,[2],55 IU/L
same,BUN,[2],21.8 mg/dL
same,CRE,[2],0.6 mg/dL
same,DBIL,[2],0.026 mg/dL
same,GLC,[2],197.4 mg/dL
same,K,[2],4.8 meq/L
same,LDH,[2],92.4 IU/L
same,Na,[2],139 meq/L
same,PL,[2],133.6 mg/dL
same,RALB,[2],3.5 g/dL
same,TBIL,[2],0.5 mg/dL
same,TC,[2],73.6 mg/dL
same,TG,[2],50.4 mg/dL
same,TP,[2],5.1 g/dL
same,gamma-GTP,[2],2 IU/L
same,TERMINAL_BW,[3],222.6 g
same,APTT,[3],15.9 s
same,Bas,[3],0%
same,Eos,[3],0.8%
same,Fbg,[3],204 mg/dL
same,Hb,[3],13 g/dL
same,Ht,[3],39.5%
same,Lym,[3],79.2%
same,MCH,[3],21.4 pg
same,MCHC,[3],32.8%
same,MCV,[3],65.4 fL
same,Mono,[3],4.8%
same,Neu,[3],15.2%
same,PT,[3],12.3 s
same,RBC,[3],604.2 x10_4/ul
same,Ret,[3],8.6%
same,KIDNEY_L,[3],1 g
same,KIDNEY_R,[3],1 g
same,KIDNEY_TOTAL,[3],2 g
same,LIVER,[3],9.4 g
same,ALP,[3],667 IU/L
same,ALT,[3],35.4 IU/L
same,AST,[3],55.8 IU/L
same,BUN,[3],16.8 mg/dL
same,CRE,[3],0.4 mg/dL
same,DBIL,[3],0.078 mg/dL
same,GLC,[3],208.6 mg/dL
same,K,[3],5 meq/L
same,LDH,[3],72.6 IU/L
same,Na,[3],139.6 meq/L
same,PL,[3],139.6 mg/dL
same,RALB,[3],3.7 g/dL
same,TBIL,[3],0.3 mg/dL
same,TC,[3],78.8 mg/dL
same,TG,[3],49 mg/dL
same,TP,[3],5.3 g/dL
same,gamma-GTP,[3],2 IU/L
same,TERMINAL_BW,[4],235.1 g
same,APTT,[4],16.5 s
same,Bas,[4],0%
same,Eos,[4],0.8%
same,Hb,[4],13.2 g/dL
same,Ht,[4],39.8%
same,Lym,[4],83.4%
same,MCH,[4],21.5 pg
same,MCHC,[4],33.2%
same,MCV,[4],64.8 fL
same,Mono,[4],5.2%
same,Neu,[4],10%
same,PT,[4],11.4 s
same,Plat,[4],118.6 x10_4/uL
same,RBC,[4],613.8 x10_4/ul
same,Ret,[4],8.6%
same,KIDNEY_L,[4],1 g
same,KIDNEY_R,[4],1 g
same,KIDNEY_TOTAL,[4],2.1 g
same,LIVER,[4],11.6 g
same,ALT,[4],37.6 IU/L
same,AST,[4],64.8 IU/L
same,BUN,[4],17.4 mg/dL
same,CRE,[4],0.6 mg/dL
same,Ca,[4],11.3 mg/dL
same,DBIL,[4],0.02 mg/dL
same,GLC,[4],189.6 mg/dL
same,IP,[4],8.5 mg/dL
same,K,[4],4.9 meq/L
same,LDH,[4],115.6 IU/L
same,Na,[4],138.8 meq/L
same,PL,[4],150.6 mg/dL
same,RALB,[4],4.1 g/dL
same,TBIL,[4],0.3 mg/dL
same,TC,[4],79.2 mg/dL
same,TG,[4],86 mg/dL
same,TP,[4],5.9 g/dL
same,gamma-GTP,[4],0.6 IU/L
same,TERMINAL_BW,[5],222.3 g
same,APTT,[5],16 s
same,Bas,[5],0%
same,Eos,[5],1%
same,Fbg,[5],204.8 mg/dL
same,Hb,[5],13.6 g/dL
same,Ht,[5],40.9%
same,Lym,[5],76.8%
same,MCH,[5],21.8 pg
same,MCHC,[5],33.1%
same,MCV,[5],65.9 fL
same,Mono,[5],5.6%
same,Neu,[5],16.4%
same,PT,[5],12.1 s
same,Plat,[5],118.1 x10_4/uL
same,RBC,[5],621.6 x10_4/ul
same,Ret,[5],8.4%
same,KIDNEY_L,[5],1 g
same,KIDNEY_R,[5],1 g
same,KIDNEY_TOTAL,[5],2.1 g
same,ALP,[5],661.2 IU/L
same,ALT,[5],37 IU/L
same,AST,[5],61 IU/L
same,BUN,[5],17.4 mg/dL
same,CRE,[5],0.5 mg/dL
same,DBIL,[5],0.006 mg/dL
same,GLC,[5],213 mg/dL
same,IP,[5],9.8 mg/dL
same,K,[5],5 meq/L
same,Na,[5],137.8 meq/L
same,PL,[5],133.6 mg/dL
same,RALB,[5],3.5 g/dL
same,TBIL,[5],0.5 mg/dL
same,TC,[5],79.4 mg/dL
same,TG,[5],53.8 mg/dL
same,TP,[5],5.5 g/dL
same,gamma-GTP,[5],1.4 IU/L
same,TERMINAL_BW,[6],215.6 g
same,APTT,[6],16.5 s
same,Bas,[6],0%
same,Eos,[6],1%
same,Fbg,[6],205.6 mg/dL
same,Hb,[6],13.4 g/dL
same,Ht,[6],40.4%
same,Lym,[6],79.6%
same,MCH,[6],21.1 pg
same,MCHC,[6],33.1%
same,MCV,[6],63.9 fL
same,Mono,[6],5.2%
same,Neu,[6],14%
same,PT,[6],12.6 s
same,RBC,[6],632.8 x10_4/ul
same,Ret,[6],8.2%
same,WBC,[6],110.9 x10_2/uL
same,KIDNEY_L,[6],1 g
same,KIDNEY_R,[6],1 g
same,KIDNEY_TOTAL,[6],2 g
same,LIVER,[6],9.6 g
same,ALP,[6],736.6 IU/L
same,ALT,[6],32.8 IU/L
same,AST,[6],57.6 IU/L
same,BUN,[6],21.2 mg/dL
same,CRE,[6],0.6 mg/dL
same,DBIL,[6],0.02 mg/dL
same,GLC,[6],211.4 mg/dL
same,IP,[6],9.8 mg/dL
same,K,[6],4.7 meq/L
same,LDH,[6],110.4 IU/L
same,Na,[6],139.6 meq/L
same,PL,[6],112.8 mg/dL
same,RALB,[6],3.6 g/dL
same,TBIL,[6],0.5 mg/dL
same,TC,[6],62.6 mg/dL
same,TG,[6],48.4 mg/dL
same,TP,[6],5.4 g/dL
same,gamma-GTP,[6],1.6 IU/L
same,TERMINAL_BW,[7],220.7 g
same,APTT,[7],16.6 s
same,Bas,[7],0%
same,Eos,[7],1%
same,Fbg,[7],201.2 mg/dL
same,Hb,[7],12.7 g/dL
same,Ht,[7],38.9%
same,Lym,[7],77.6%
same,MCH,[7],20.8 pg
same,MCHC,[7],32.7%
same,MCV,[7],63.4 fL
same,Mono,[7],4.8%
same,Neu,[7],16.6%
same,PT,[7],12.4 s
same,Plat,[7],113.6 x10_4/uL
same,RBC,[7],613.4 x10_4/ul
same,Ret,[7],8.7%
same,KIDNEY_L,[7],1 g
same,KIDNEY_R,[7],1 g
same,KIDNEY_TOTAL,[7],2 g
same,LIVER,[7],9.1 g
same,ALP,[7],691.6 IU/L
same,ALT,[7],36 IU/L
same,AST,[7],59.4 IU/L
same,BUN,[7],24.4 mg/dL
same,CRE,[7],0.4 mg/dL
same,DBIL,[7],0.08 mg/dL
same,GLC,[7],192.2 mg/dL
same,IP,[7],11 mg/dL
same,K,[7],5.3 meq/L
same,LDH,[7],76 IU/L
same,Na,[7],140 meq/L
same,PL,[7],118.2 mg/dL
same,RALB,[7],3.4 g/dL
same,TBIL,[7],0.5 mg/dL
same,TC,[7],68.4 mg/dL
same,TG,[7],27.4 mg/dL
same,TP,[7],5.1 g/dL
same,gamma-GTP,[7],1.8 IU/L
same,TERMINAL_BW,[8],237.2 g
same,APTT,[8],16.4 s
same,Bas,[8],0%
same,Eos,[8],1%
same,Hb,[8],12.8 g/dL
same,Ht,[8],38.5%
same,Lym,[8],79%
same,MCH,[8],21.7 pg
same,MCHC,[8],33.2%
same,MCV,[8],65.3 fL
same,Mono,[8],5.2%
same,Neu,[8],14.8%
same,PT,[8],11.3 s
same,Plat,[8],110.3 x10_4/uL
same,RBC,[8],589.4 x10_4/ul
same,Ret,[8],8.4%
same,WBC,[8],95.8 x10_2/uL
same,KIDNEY_L,[8],1.1 g
same,KIDNEY_R,[8],1.1 g
same,KIDNEY_TOTAL,[8],2.1 g
same,LIVER,[8],11.8 g
same,ALP,[8],971.2 IU/L
same,ALT,[8],39.8 IU/L
same,AST,[8],66.4 IU/L
same,BUN,[8],16.8 mg/dL
same,CRE,[8],0.6 mg/dL
same,Ca,[8],11.1 mg/dL
same,DBIL,[8],0.058 mg/dL
same,GLC,[8],200.4 mg/dL
same,IP,[8],8.6 mg/dL
same,K,[8],4.5 meq/L
same,LDH,[8],100.4 IU/L
same,Na,[8],137.8 meq/L
same,PL,[8],142 mg/dL
same,RALB,[8],3.9 g/dL
same,TBIL,[8],0.3 mg/dL
same,TC,[8],81.4 mg/dL
same,TP,[8],5.7 g/dL
same,gamma-GTP,[8],1.2 IU/L
